These results are taken from US7297797B2, “Pyrrolines” (Bayer CropScience AG, priority 2002, dated 2007).

Series [1] relates to larvae of the mustard beetle (Phaedon cochleariae). Nature of the series: Phaedon larvae test. In kind it is in vivo. The following applies: 168 h, 100 ppm active compound, cabbage leaves (Brassica oleracea) dipped, after 7 d, read-out: Kill rate in % after 7 d. The method, then:
(§1) Phaedon Larvae Test • Solvent: 7 parts by weight of dimethylformamide • Emulsifier: 2 parts by weight of alkylaryl polyglycol ether To produce a suitable preparation of active compound, 1 part by weight of active compound is mixed with the stated amounts of solvent and emulsifier, and the concentrate is diluted with emulsifier-containing water to the desired concentration. Cabbage leaves (Brassica oleracea) are treated by being dipped into the preparation of active compound of the desired concentration and are populated with larvae of the mustard beetle (Phaedon cochleariae) while the leaves are still moist. After the desired period of time, the kill in % is determined. 100% means that all beetle larvae have been killed; 0% means that none of the beetle larvae have been killed. In this test, for example, the following compounds of the preparation examples show good activity: […]

The test system of series [2] is caterpillars of the cotton bollworm (Heliothis armigera). The series is described as follows: Heliothis armigera test. It counts as in vivo. The following applies: Helicoverpa armigera, 168 h; 100 ppm active compound; soybean shoots (Glycine max) dipped; after 7 d; read-out: Kill rate in % after 7 d. The protocol:
as §1, with “Heliothis armigera” for “Phaedon Larvae”, “Soybean shoots (Glycine max)” for “Cabbage leaves (Brassica oleracea)”, “caterpillars” for “larvae”, “cotton bollworm (Heliothis armigera)” for “mustard beetle (Phaedon cochleariae)”, “caterpillars” for “beetle larvae”

Series [3] deals with greenhouse red spider mite (Tetranychus urticae). The series is described as follows: Tetranychus test (OP-resistant/dip treatment). As to conditions: 168 h, 100 ppm active compound, infested bean plants (Phaseolus vulgaris) dipped, OP-resistant, after 7 d, read-out: Kill rate in % after 7 d. It counts as in vivo. The protocol:
Tetranychus Test (OP-Resistant/Dip Treatment)
• Solvent: 7 parts by weight of dimethylformamide • Emulsifier: 2 parts by weight of alkylaryl polyglycol ether
To produce a suitable preparation of active compound, 1 part by weight of active compound is mixed with the stated amounts of solvent and emulsifier, and the concentrate is diluted with emulsifier-containing water to the desired concentration.
Bean plants (Phaseolus vulgaris) which are heavily infested by all stages of the greenhouse red spider mite (Tetranychus urticae) are treated by being dipped into a preparation of active compound of the desired concentration.
After the desired period of time, the activity in % is determined. 100% means that all spider mites have been killed; 0% means that none of the spider mites have been killed.
In this test, for example, the following compounds of the preparation examples show good efficacy: […]

A short description of series [4]: log P determination by HPLC on reversed-phase column (EEC Directive 79/831 Annex V.A8). It counts as physicochemical. The protocol:
The log P values given in the preparation examples and tables above are determined in accordance with EEC Directive 79/831 Annex V.A8 by HPLC (High Performance Liquid Chromatography) on a reversed-phase column (C 18). Temperature: 43° C. In the acidic range, determination is carried out at pH 2.3 using the mobile phases 0.1% aqueous phosphoric acid and acetonitrile; linear gradient from 10% acetonitrile to 90% acetonitrile (in the tables marked with a)). In the neutral range, determination is carried out at pH 7.5 using the mobile phases 0.01 molar aqueous phosphate buffer solution and acetonitrile; linear gradient from 10% acetonitrile to 90% acetonitrile (in the tables marked with b)). Calibration is carried out using unbranched alkan-2-ones (of 3 to 16 carbon atoms) with known lopP values (determination of the log P values by the retention times using linear interpolation between two successive alkanones).

For series [5], the system named is caterpillars of the army worm (Spodoptera frugiperda). Nature of the series: Spodoptera frugiperda test. In kind it is in vivo. As to conditions: 168 h, 100 ppm active compound, cabbage leaves (Brassica oleracea) dipped, after 7 d, read-out: Kill rate in % after 7 d. The method, then: as §1, with “Spodoptera frugiperda” for “Phaedon Larvae”, “caterpillars” for “larvae”, “army worm (Spodoptera frugiperda)” for “mustard beetle (Phaedon cochleariae)”, “caterpillars” for “beetle larvae”

Series [6] deals with caterpillars of the army worm (Spodoptera exigua). The series is described as follows: Spodoptera exigua test. It counts as in vivo. As to conditions: 100 ppm active compound, cabbage leaves (Brassica oleracea) dipped. The protocol: as §1, with “Spodoptera exigua” for “Phaedon Larvae”, “caterpillars” for “larvae”, “army worm (Spodoptera exigua)” for “mustard beetle (Phaedon cochleariae)”, “caterpillars” for “beetle larvae”

In series [7] the test system is caterpillars of the diamondback moth (Plutella xylostella). Nature of the series: Plutella test. It counts as in vivo. As to conditions: 100 ppm active compound, cabbage leaves (Brassica oleracea) dipped. The protocol:
as §1, with “Plutella” for “Phaedon Larvae”, “caterpillars” for “larvae”, “diamondback moth (Plutella xylostella)” for “mustard beetle (Phaedon cochleariae)”, “caterpillars” for “beetle larvae”

[8] abbreviates: reversed-phase C18 HPLC column; acidic range, pH 2.3, 0.1% aqueous phosphoric acid/acetonitrile, 43° C.; marked a) in tables, read-out: log P (pH 2.3).
Where [9] appears, read: reversed-phase C18 HPLC column; neutral range, pH 7.5, 0.01 molar aqueous phosphate buffer/acetonitrile, 43° C.; marked b) in tables, read-out: log P (pH 7.5).

Structures are written as SMILES. Like-named read-outs stand apart in the source and are kept apart here.

Turning to `CC(C)(C)c1noc(-c2ccc(-c3ccc(C4CCC(c5c(F)cccc5F)=N4)c(F)c3)cc2)n1` (stereo not drawn) [Example 5, 3-tert-butyl-5-{4′-[5-(2,6-difluorophenyl)-3,4-dihydro-2H-pyrrol-2-yl]-3′-fluoro-1,1′-biphenyl-4-yl}-1,2,4-oxadiazole], the pest or weed control at 100 ppm in series [1] came to 100%; in series [2], 100%; in series [3], 98%; in series [5], 100%. For the same compound, the values for the chromatographic logP in series [4] (setting [8]) and in series [4] (setting [9]) were 5.79 and 6.06, respectively. In addition, in series [6], the “Kill rate in after 7 d” value is on record as 100%. Also, the “Kill rate in % after 7 d” value in series [7] amounted to 100%.

As for `CC(C)(C)c1nc(-c2ccc(-c3ccc(C4CCC(c5c(F)cccc5F)=N4)c(F)c3)cc2)no1` (stereo not drawn) [Example 6, 5-tert-butyl-3-{4′-[5-(2,6-difluorophenyl)-3,4-dihydro-2H-pyrrol-2-yl]-3′-fluoro-1,1′-biphenyl-4-yl}-1,2,4-oxadiazole], the pest or weed control at 100 ppm in series [1] is 100%; in series [2], 100%; in series [3], 98%; in series [5], 100%. The chromatographic logP in series [4] (setting [8]) came to 5.65; in series [4] (setting [9]) it was 5.97. Besides, the “Kill rate in after 7 d” value in series [6] is reported as 100%. In series [7], the “Kill rate in % after 7 d” value worked out at 100%.

`Fc1cc(-c2ccc(-c3noc(C(F)(F)F)n3)cc2)ccc1C1CCC(c2c(F)cccc2F)=N1` (stereo not drawn) [Example 7]: the pest or weed control at 100 ppm in series [1] was 100%; in series [2] it was 100%; in series [3], 98%; in series [5], 100%. Besides, the figures for the chromatographic logP in series [4] (setting [8]) and in series [4] (setting [9]) were 5.43 and 5.72, respectively. For the same compound, the “Kill rate in after 7 d” value in series [6] was 100%. For the same compound, in series [7], the “Kill rate in % after 7 d” value was found to be 100%.
